Experimental data published in patent US20010010922A1, “CLONING AND USES OF THE GENETIC LOCUS BCL-6” (priority 1994, published 2001).
“Also recorded” adds a separate entry of the source. Peptide text beside a SMILES is read from it. * marks the point of attachment. Cbz = O=C(OCc1ccccc1)*

What was measured:
BCL-6 [1] = assay: MEK-2E mediated degradation of BCL-6 in transfected 293T cells, Western blot; type: cell-based; conditions: 293T cells transfected with BCL-6 and MEK-2E; inhibitor 50 μM added 8 hrs after transfection
Method: (§1) FIGS. 22A-22B MAPK-induced BCL-6 degradation is mediated by the ubiquitin/proteasome pathway. (FIG. 22A) Western blot analysis of BCL-6 proteins in 293T cells transfected with BCL-6 in the absence or presence of co-transfected MEK-2E treated with 0.2% DMSO (lanes 1-3), 50 μM Calpain inhibitor II (lanes 4-6), or 50 μM MG132 (lanes 7-9) (added 8hrs after transfection). (FIG. 22B) 293T cells were transfected with BCL-6, His-Ub, and MEK-2E in the absence (lanes 1-4) or presence of MG132 (lanes 5-8). Cell lysates were immunoprecipitated with anti-BCL-6 antibodies (N-70-6) and the immunoprecipitants were analyzed by 6% SDS-PAGE followed by Western blot analysis using anti-ubiquitin antibodies.
293T cells, grow in DMEM, 10% FBS, were transfected transiently with various DNA vectors using standard calcium phosphate precipitation methods. […]
(§2) Total RNA were isolated from cells by using Trizol-reagents (GIBCO-BRL) and equal amounts of RNA were separated on 1% formaldehyde-agarose gel. […] For Ramos cells and their stable transfectants (untreated or treated), equal amounts of protein were analyzed by 8% or 10% SDS-PAGE, and subsequently by Western blot analysis using anti-BCL-6 (N-70-6), anti-ERK2 (C-14) or anti-HA (12CA5) antibodies at 1:3000, 1:1000 or 1:500 dilutions. […]

[2] = tested on: BCL-6/ubiquitin conjugates; assay: In vivo ubiquitination assay in transfected 293T cells (anti-BCL-6 immunoprecipitation, anti-ubiquitin Western blot); type: cell-based
Method: as §1, with “antibodies. […]” for “antibodies.”
Therefore, we tested whether MEK-2E mediated degradation of BCL-6 in transfected 293T cells could be inhibited by the proteasome inhibitor Cbz-LLL (MG132) (Kim and Maniatis, 1996; Palombella et al., 1994; Rock et al., 1994). […] Because the addition of multiple ubiquitins to the proteolysis substrate is a key step preceding target degradation by the proteasome, we then tested whether BCL-6/ubiquitin conjugates in vivo could be detected. […] Cell lysates were subjected to immunoprecipitation with anti-BCL-6 antibodies, and the immunoprecipitates were analyzed by Western blotting using anti-ubiquitin antibodies. […]

BCL-6 [3] = assay: Anti-IgM treatment of Ramos cells, Western blot of BCL-6; type: cell-based, human; conditions: inhibitor 50 μM added 30 min (PD098059) or 1 hr (MG132) before anti-IgM
Method: FIGS. 23A-23E. BCL-6 is phosphorylated and degraded by antigen receptor signaling in B cells. Ramos cells ([…]) were treated with anti-IgM ([…]) and harvested at different time points after treatment as indicated. (FIG. 23A) (Top three panels) Equal amounts of cell extracts were used for Western blot analysis using anti-BCL-6 (top), or anti-ERK2 (middle) antibodies, and for solid phase ERK2 kinase assays (MBP, bottom); Equal amounts of RNAs (10 μg) were used for Northern blot analysis with BCL-6 or GAPDH probes (bottom). (FIG. 23B) Hyperphosphorylated BCL-6 proteins are more unstable. […] Cell extracts were immunoprecipitated with anti-BCL-6 antibodies and analyzed by SDS-PAGE followed by autoradiography. […] Equal amounts of cell extracts were loaded on 7% (HA-BCL-6 or HA-BCL-6Ala333,343) or 10% SDS-PAGE (HA-BCL-6ZF) and the amount of exogenous BCL-6 proteins were analyzed by Western blot using anti-HA antibodies (12CA5).
as §2

Structure (SMILES): CC(C)C[C@@H](C=O)NC(=O)[C@H](CC(C)C)NC(=O)[C@H](CC(C)C)NC(=O)OCc1ccccc1 [MG132, N-CBZ-Leu-Leu-Leu-AL] (Cbz-Leu-Leu-Leu-aldehyde)
- inhibition of MEK-2E mediated BCL-6 degradation (BCL-6 [1]): prevented; also recorded: completely inhibited
- multi-ubiquitinated forms of BCL-6 (BCL-6/ubiquitin conjugates) ([2]; 293T cells transfected with BCL-6, His-Ub and MEK-2E, MG132 50 μM (lane 8)): detectable at high levels
- multi-ubiquitinated forms of BCL-6 (BCL-6/ubiquitin conjugates) ([2]; 293T cells transfected with BCL-6 and His-Ub, no MEK-2E, MG132 50 μM (lane 7)): low levels were detectable
- inhibition of anti-IgM-induced BCL-6 degradation (BCL-6 [3]): specifically inhibited; also recorded: prevented

Structure (SMILES): COc1cccc(-c2cc(=O)c3ccccc3o2)c1N [PD098059]
- inhibition of anti-IgM-induced BCL-6 degradation (BCL-6 [3]): inhibited; also recorded: prevented

Structure (SMILES): CSCC[C@@H](C=O)NC(=O)[C@H](CC(C)C)NC(=O)[C@H](CC(C)C)NC(C)=O [calpain inhibitor II] (Ac-Leu-Leu-Met-aldehyde)
- inhibition of MEK-2E mediated BCL-6 degradation (BCL-6 [1]): not
